This is an account of results in patent EP3118613B1, “ELECTRIC COMPONENT WITH ORGANIC PART” (ACREO SWEDISH ICT AB, priority 2015, dated 2017).

“Also recorded” adds a separate entry of the source.

Data set [1] in a line: Cyclic voltammetry, onset potential of polymerization. To be noted: 1 mg/ml in 0.01 M NaCl, ITO working electrode, Ag/AgCl reference, 50 mV/s. In kind it is physicochemical. The procedure:
In order to define the on-set potential of the polymerization of the trimer a three electrode setup was used. The working electrode is an ITO coated glass, the counter electrode is a Platinum sheet and the reference electrode is an Ag/AgCl saturated electrode. The electrolyte was 1mg/ml of compound 1 in 0.01M NaCl. The active area of the ITO was 21mm x 8mm. A cyclic voltametry was performed in order to define the onset potential. The potential was applied between the working and the reference electrode while the current was measured between the working and the counter electrode. The potential was scanned from +0.5V to -0.5V, starting from 0V with a scan rate of 50mV/s. During the first scan current increases at around +0.3V defining the onset potential of the polymerization were observed. The polymer is deposited on the active area of the ITO coated glass.
In order to define the on-set potential of the polymerization of the trimer we used a three electrode setup. The working electrode is an ITO coated glass, the counter electrode is a Platinum sheet and the reference electrode is a Ag/AgCl saturated electrode. The electrolyte was 1 mg/ml of compound 1 in 0.01 M NaCl. The active area of the ITO was 21 mm x 8 mm. […] The potential was applied between the working and the reference electrode while the current was measured between the working and the counter electrode. […]

For data set [2], the system named is young bean plant. The data set is described as follows: Immersion of bean plant roots or stem in compound 1 solution, plant survival and growth. In kind it is in vivo. Particulars: roots or stem immersed in 1 mg/mL aqueous solution; replanted in gel. The procedure: Figure 16A-E illustrates another experiment, with references to the alphabetical parts of figure in parenthesis. A young bean plant having a plurality of roots was used as a test specimen. In (A) the roots of the young bean plant were planted in a plastic container having Seedhru® gel as a soil substitute.. Two of the roots of the bean plant were immersed in a vial 1600 (B) containing aqueous solution of compound 1 (1 mg/mL). […] As soon as or shortly after the two roots were immersed the color of the compound 1 solution shifted from white to pink (D) and then back to white again. The reason of the color shift is still being investigated. […] After 24 hours one of the roots was removed from the compound 1 solution and can be seen in (E) and in figure 17. The other root was left immersed in the compound 1 solution for 24 more hours (total 48hours). After 48 hours the second root was cut of the bean plant and can be seen in figure 18.. Note that the part of the root which was immersed in compound 1 is now coated with polymerized compound 1 as indicated by the darker color. […]

Data set [3] in a line: Two-probe conductivity measurement of conducting wires in rose xylem. In kind it is physicochemical, Rosa floribunda. To be noted: xylem wires in rose stem, two Au probes. The procedure:
We chose to use cuttings of Rosa floribunda (garden rose) as our model plant system. The lower part of a rose stem was cut and the fresh cross section was immersed in an aqueous PEDOT-S:H solution for 24-48 h (Fig. 7A), during which time the PEDOT-S:H solution was taken up into the xylem vascular channel and transported apically. The rose was taken from the solution and rinsed in water. The outer bark, cortex and phloem of the bottom part of the stem were then gently peeled off, exposing dark continuous lines along individual 20-100 µm wide xylem channels (Fig. 7B-D). These "wires" extended more than 5 cm along the stem. […] The conductivity of PEDOT-S:H wires was measured using two Au probes applied into individual PEDOT-S:H xylem wires along the stem (Fig. 7D). From the linear fit of resistance versus distance between the contacts, we found electrical conductivity reading 0.13 S/cm with contact resistance ∼10 kΩ (Fig. 7E). […]
Figure 29A is an external views of a plant part, in this case the steam where the epidermis has been peeled off, also showing two gold plated microelectrodes 2300 used to contact and penetrate a surface of the stem in order to reach the xylem channel. […] This is the currently highest measured electronic conductivity in a plant. […]

The nature of data set [4]: Conductivity of ETE-S polymerized in air. In kind it is physicochemical. The procedure: The conductivity of ETE-S based wires was measured using two Au probes applied into individual xylem wires along the stem (Fig. 38) and found to be equal to 7.25 +- 3.38 S/cm (n=17). […] The high conductivity was retained for cm scale wires showing that good interconnectivity is achieved along the xylem wires. […] The conductivity of 10mg/ml solution is 10^-5 S/cm while for 50mg/ml is on the order of 10^-3S/CM. In the plants we typically administrate 5ml solution of 1mg/ml concentration. An estimation of the total volume of the xylem tubing in a rose cutting of 15cm is 0.15ml taking into account an average diameter of xylem to be 20um. For this volume and since all the solution is taken up form the plant we end up with concentrations of the ETE-S molecule in the order of 30mg/ml. From microscopy images we see that approximately only 10% of the xylem is filled, while the majority of the rest is coated with the material and for that volume we have concentrations up to 300mg/ml. This high concentration in the plant allows the material to organize and polymerize in a way that creates highly conducting wires.

A short description of data set [5]: Xylem supercapacitor, specific capacitance of xylem wire electrodes. In kind it is physicochemical, rose. To be noted: from slope of capacitance per area vs length of xylem wire. From the text:
Plant's anatomy upon functionalization with the conducting material provides an ideal architecture for developing supercapacitors in vivo. The long-range conducting xylem wires are parallel and electronically isolated to each other while are surrounded with cellular domains and extracellular space rich in electrolyte. Therefore we explored the charge storage capacity of the xylem wires. Two parallel xylem wires served as the electrodes (capacitor plates) and the plant tissue in between them the spacer. Two Au probes defined the electrodes contacts. In the schematic of Fig. 36.a we show the general structure and the wiring of a supercapacitor along with the optical micrograph of the corresponding supercapacitor in the plant Fig. 36.b.
From the slope of the discharging curve we calculate the capacitance of the device equal to 1.3 10^-4 F The capacitive behavior of the material is indicated and by the square shaped voltamogramm Fig. 43 in the potential range of -0.5V - 0.5V. In order to extract the specific capacitance of the xylem electrodes we measure devices of various dimensions. Xylem wires have typically diameter of 30-50um and lengths in the cm scale. In Fig. 36.d. we show the capacitance per area (diameter of xylem wire) vs the length. From the slope we calculated the specific capacitance and found it equal to 20F/cm3, a value in the typical range for conducting polymers. […]

Consider `c1scc2c1OCCO2` [EDOT], for which the “onset potential of the polymerization” value in data set [1] is 1.1 V.

For “exo-EDOT-Thiophene-EDOT-alkoxylfonate [compound 1]”, the “growth or survival of the plant” value in data set [2] is “survives for at least two weeks; also recorded: showed further growth”. Also, in data set [3], the electrical conductivity result is “approximately 1.5 S/cm”. For the same compound, the conductivity in data set [4] (10mg/ml solution) is 10^-5 S/cm; in data set [4] (50mg/ml solution), ~10^-3 S/CM. Besides, the specific capacitance in data set [5] is 20 F/cm3.
